Experimental data: patent publication US12673032B2, “Exploiting estrogen receptor beta and TP53 interaction as a new therapeutic strategy for cancer” (Health Research, Inc., priority 2018, dated 2026)
Like-named read-outs stand apart in the source and are kept apart here.

Legend:
[1] = test system: TP73 recruitment to the PUMA gene promoter; assay: qChIP for BBC3 (PUMA) promoter occupancy by TP73; type: cell-based; conditions: MDA-MB-231 cells; 5 μM for 24 hours
Description: FIGS. 17A-C. […] (A) Cells were treated with 5 μM TAM for 24 hours. After 24 hours, BBC3 promoter occupancy by TP73 was determined using qChIP in MDA-MB-231 cells. (B) SK-BR-3 cells were transfected with si-NS or si-ESR2 #2 for 48 hours and treated with or without 5 μM TAM for 24 hours. After 72 hours, expression of TP53 target genes (CDKN1A and BBC3) was determined using qRT-PCR. (C) SK-BR-3 cells were transfected with si-NS or si-TP73 for 48 hours and treated with or without 5 μM TAM for 24 hours. After 72 hours, expression of TP53 target genes (CDKN1A and BBC3) was determined using qRT-PCR. Error bars are represented as mean SD of three independent experiments. All ‘p’ values were determined by two tailed student t-test. qRT-PCR=Quantitative real time polymerase chain reaction. si-NS=non-specific siRNA; si-ESR2 #2=ESR2 specific siRNA; si-TP73=TP73 specific siRNA; VEH=Vehicle; TAM=4-Hydroxytamoxifen.
Chromatin immunoprecipitation (ChIP) assay. […] Immunoprecipitated chromatin samples were analyzed through real-time q-PCR as stated above. A region downstream of CDKN1A/p21 promoter sequence was used as endogenous control for the relative quantitation of immunoprecipitated chromatin fragments (Details of the primers are provided in Table 1). The promoter occupancy by transcription factor (s) of interest was analyzed as qRT-PCR.

[2] = test system: MDA-MB-231 cells expressing mutant p53; assay: Doxorubicin cell-killing IC50 in TNBC cells expressing mutant p53, with or without tamoxifen; type: cell-based; conditions: for IC50: Homo sapiens

| Molecule | recruitment of TP73 to the PUMA gene promoter (qChIP) [1] | IC50 ([2]; MDA-MB-231, read-out: IC50 of doxorubicin with addition of tamoxifen) | IC50 ([2]; read-out: IC50 (drug concentration required to kill 50% cells) of doxorubicin, MDA-MB-231 expressing mutant p53, doxorubicin alone) | Decrease of doxorubicin IC50 on addition of tamoxifen ([2]; MDA-MB-231 expressing mutant p53) |
| --- | --- | --- | --- | --- |
| 4-hydroxy tamoxifen | enhanced | – | – | – |
| COc1cccc2c1C(=O)c1c(O)c3c(c(O)c1C2=O)C[C@@](O)(C(=O)CO)C[C@@H]3O[C@H]1C[C@H](N)[C@H](O)[C@H](C)O1 [doxorubicin] | – | 150 nM | 1050 nM | about 7 fold |
